Results: publication PMC5504085 (Journal of medicinal chemistry, 2017)

Tests used:
[1] = test system: recRSV-A2-L19FD489E-fireSMASh; assay type: cell-based, respiratory syncytial virus; conditions: for antiviral (anti-RSV) activity in words: SAR discussion
[2] = Metabolic stability in mouse liver microsomes; assay type: in vitro ADME; conditions: without cofactors, 2 hours
[3] = Metabolic stability in mouse liver S9 fractions; assay type: in vitro ADME
RSV = conditions: orally available; phase II clinical trials; cited from earlier work

Compound | antiviral (anti-RSV) activity in words [1] | also measured
CCc1ccoc1C(=O)N1CCCn2nc(C(=O)Nc3ccccc3)cc2C1 [Compound 1k, 5-(3-Ethylfuran-2-carbonyl)-N-phenyl-5,6,7,8-tetrahydro-4H-pyrazolo[1,5-a][1,4]diazepine-2-carboxamide] | negative impacts on the potency | 
Cc1c(C(=O)N2CCCn3nc(C(=O)Nc4ccccc4)cc3C2)oc2ccccc12 [Compound 1i, 5-(3-Methylbenzofuran-2-carbonyl)-N-phenyl-5,6,7,8-tetrahydro-4H-pyrazolo[1,5-a][1,4]diazepine-2-carboxamide] | complete loss of potency | 
Cc1coc(C(=O)N2CCCn3nc(C(=O)Nc4ccccc4)cc3C2)c1 [Compound 1o, 5-(4-Methylfuran-2-carbonyl)-N-phenyl-5,6,7,8-tetrahydro-4H-pyrazolo[1,5-a][1,4]diazepine-2-carboxamide] | loss of activity | 
Cc1ccoc1CN1CCCn2nc(C(=O)Nc3ccccc3)cc2C1 [Compound 1t, 5-((3-Methylfuran-2-yl)methyl)-N-phenyl-5,6,7,8-tetrahydro-4H-pyrazolo[1,5-a][1,4]diazepine-2-carboxamide] | complete loss of bioactivity | 
Cc1ccsc1C(=O)N1CCCn2nc(C(=O)Nc3ccccc3)cc2C1 [Compound 1c, 5-(3-Methylthiophene-2-carbonyl)-N-phenyl-5,6,7,8-tetrahydro-4H-pyrazolo[1,5-a][1,4]diazepine-2-carboxamide] | complete loss of potency | 
Cc1ccc(C(=O)N2CCCn3nc(C(=O)Nc4ccccc4)cc3C2)o1 [Compound 1p, 5-(5-Methylfuran-2-carbonyl)-N-phenyl-5,6,7,8-tetrahydro-4H-pyrazolo[1,5-a][1,4]diazepine-2-carboxamide] | loss of activity | 
Cc1ccoc1C(=O)N1CCCn2nc(C(=O)N(C)c3ccccc3)cc2C1 [Compound 8a, N-methyl-5-(3-methylfuran-2-carbonyl)-N-phenyl-5,6,7,8-tetrahydro-4H-pyrazolo[1,5-a][1,4]diazepine-2-carboxamide] | loss of activity | 
Cc1ccoc1C(=O)N1CCCn2nc(NS(=O)(=O)c3ccccc3)cc2C1 [Compound 8t, N-(5-(3-methylfuran-2-carbonyl)-5,6,7,8-tetrahydro-4H-pyrazolo[1,5-a][1,4]diazepin-2-yl)benzenesulfonamide] | loss of activity | 
Cc1ccoc1C(=O)N1CCCn2nc(CNc3ccccc3)cc2C1 [Compound 8q, (3-Methylfuran-2-yl)(2-((phenylamino)methyl)-7,8-dihydro-4H-pyrazolo[1,5-a][1,4]diazepin-5(6H)-yl)methanone] | retained sufficient activity | 
O=C(Nc1ccccc1)c1cc2n(n1)CCCN(C(=O)c1occc1-c1ccccc1)C2 [Compound 1h, N-phenyl-5-(3-phenylfuran-2-carbonyl)-5,6,7,8-tetrahydro-4H-pyrazolo[1,5-a][1,4]diazepine-2-carboxamide] | lacked appreciable inhibitory activity | 
Cc1ccoc1C(=O)N1CCCn2nc(C(=O)Nc3ccc(F)cc3Cl)cc2C1 [Compound 8n, N-(2-chloro-4-fluorophenyl)-5-(3-methylfuran-2-carbonyl)-5,6,7,8-tetrahydro-4H-pyrazolo[1,5-a][1,4]diazepine-2-carboxamide] | nanomolar potency | improvement in antiviral potency compared to hit compound 1a [1]: approximately 4 fold
O=C(Nc1ccccc1)c1cc2n(n1)CCCN(S(=O)(=O)c1ccco1)C2 [Compound 1u, 5-(Furan-2-ylsulfonyl)-N-phenyl-5,6,7,8-tetrahydro-4H-pyrazolo[1,5-a][1,4]diazepine-2-carboxamide] | complete loss of bioactivity | 
O=C(Nc1ccccc1)c1cc2n(n1)CCCN(C(=O)c1ccncn1)C2 [Compound 1s, N-phenyl-5-(pyrimidine-4-carbonyl)-5,6,7,8-tetrahydro-4H-pyrazolo[1,5-a][1,4]diazepine-2-carboxamide] | complete loss of potency | 
5-(4-Methylisoxazole-5-carbonyl)-N-phenyl-5,6,7,8-tetrahydro-4H-pyrazolo[1,5-a][1,4]diazepine-2-carboxamide [Compound 1q] | complete loss of potency | 
Cc1ccoc1C(=O)N1CCCn2nc(NC(=O)c3ccccc3)cc2C1 [Compound 8s, N-(5-(3-methylfuran-2-carbonyl)-5,6,7,8-tetrahydro-4H-pyrazolo[1,5-a][1,4]diazepin-2-yl)benzamide] | loss of activity | 
Cc1ccoc1C(=O)N1CCCn2nc(C(=O)Cc3ccccc3)cc2C1 [Compound 8p, 1-(5-(3-Methylfuran-2-carbonyl)-5,6,7,8-tetrahydro-4H-pyrazolo[1,5-a][1,4]diazepin-2-yl)-2-phenylethanone] | retained sufficient activity | stability of parent in mouse liver microsomes [2]: parent remained intact; improvement in half-life compared to 8g ([3]; mouse S9 subcellular fractions): 2 fold
Cc1ccoc1C(=O)N1CCCn2nc(C(=O)Nc3ccc(F)cc3)cc2C1 [Compound 8i, N-(4-fluorophenyl)-5-(3-methylfuran-2-carbonyl)-5,6,7,8-tetrahydro-4H-pyrazolo[1,5-a][1,4]diazepine-2-carboxamide] | nanomolar potency | 
Cc1ccn(C)c1C(=O)N1CCCn2nc(C(=O)Nc3ccccc3)cc2C1 [Compound 1e, 5-(1,3-Dimethyl-1H-pyrrole-2-carbonyl)-N-phenyl-5,6,7,8-tetrahydro-4H-pyrazolo[1,5-a][1,4]diazepine-2-carboxamide] | complete loss of potency | 
Cc1cc[nH]c1C(=O)N1CCCn2nc(C(=O)Nc3ccccc3)cc2C1 [Compound 1d, 5-(3-Methyl-1H-pyrrole-2-carbonyl)-N-phenyl-5,6,7,8-tetrahydro-4H-pyrazolo[1,5-a][1,4]diazepine-2-carboxamide] | complete loss of potency | 
O=C(Nc1ccccc1)c1cc2n(n1)CCCN(C(=O)c1occc1C(F)(F)F)C2 [Compound 1j, N-phenyl-5-(3-(trifluoromethyl)furan-2-carbonyl)-5,6,7,8-tetrahydro-4H-pyrazolo[1,5-a][1,4]diazepine-2-carboxamide] | negative impacts on the potency | 
5-(4-Methyloxazole-5-carbonyl)-N-phenyl-5,6,7,8-tetrahydro-4H-pyrazolo[1,5-a][1,4]diazepine-2-carboxamide [Compound 1r] | complete loss of potency | 
CC(C)C(=O)OC[C@@]1(CCl)O[C@@H](n2ccc(N)nc2=O)[C@H](F)[C@@H]1OC(=O)C(C)C [ALS-8176, 4'-chloromethyl-2'-deoxy-3',5'-di-o-isobutyryl-2'-fluorocytidine] |  | effect on viral load and disease symptoms (RSV): decreased viral load and disease symptoms
Cc1ccoc1C(=O)N1CCCn2nc(C(=O)Nc3ccc(F)cc3F)cc2C1 [Compound 8c, N-(2,4-difluorophenyl)-5-(3-methylfuran-2-carbonyl)-5,6,7,8-tetrahydro-4H-pyrazolo[1,5-a][1,4]diazepine-2-carboxamide] |  | improvement in antiviral potency compared to hit compound 1a [1]: approximately 4 fold
Cc1cc(C(=O)N2CCCn3nc(C(=O)Nc4ccccc4)cc3C2)oc1C [Compound 1n, 5-(4,5-Dimethylfuran-2-carbonyl)-N-phenyl-5,6,7,8-tetrahydro-4H-pyrazolo[1,5-a][1,4]diazepine-2-carboxamide] | lacked antiviral activity | 
Cc1ccoc1C(=O)N1CCCn2nc(S(=O)(=O)Nc3ccccc3)cc2C1 [Compound 8r, 5-(3-Methylfuran-2-carbonyl)-N-phenyl-5,6,7,8-tetrahydro-4H-pyrazolo[1,5-a][1,4]diazepine-2-sulfonamide] | loss of activity | 
COc1ccc(NC(=O)c2cc3n(n2)CCCN(C(=O)c2occc2C)C3)cc1 [Compound 8l, N-(4-methoxyphenyl)-5-(3-methylfuran-2-carbonyl)-5,6,7,8-tetrahydro-4H-pyrazolo[1,5-a][1,4]diazepine-2-carboxamide] | nanomolar potency | 
Cc1ccoc1C(=O)N1CCCn2nc(C(=O)Nc3ccccc3F)cc2C1 [Compound 8g, N-(2-fluorophenyl)-5-(3-methylfuran-2-carbonyl)-5,6,7,8-tetrahydro-4H-pyrazolo[1,5-a][1,4]diazepine-2-carboxamide] |  | stability with mouse S9 fractions ([3]; in the absence of cofactors): hydrolyzed rapidly; improvement in antiviral potency compared to hit compound 1a [1]: approximately 4 fold
